Assays:
[1] = tested on: Pseudomonas PAO1 strain (ATCC 15692); assay: Amount of biofilm formed (crystal violet, OD570), 96-well microplate culture; assay type: cell-based
Experimental: Pseudomonas PAO1 strain (ATCC 15692) was subjected to stationary culture performed in LB culture medium (Lysogeny Broth; manufactured by Becton Dickinson) at 37° C. for 24 hours. The turbidity (OD600) of the culture solution was measured. The culture solution was diluted with Mueller Hinton Broth (BBL made) to prepare a suspension (15 mL) having a turbidity (OD600) of 1/10^6. […]
(§1) Growth inhibition rates relative to the control (ethanol alone) were calculated based on OD600 values measured and in accordance with the following expression. In addition, biofilm (BF) formation inhibition rates relative to the control (ethanol alone) were calculated based on OD570 values and in accordance with the following expression:
BF inhibition (%)={1−(compound addition group OD570/control group OD570)}×100
(§2) As a control, an ethanol solvent alone was used (EtOH control). The concentrations of test compounds in the ethanol solution were as follows: test compound 1: 20 mM, test compounds 2 to 7: 100 mM. To each of the wells of a 96-well microplate (351172; manufactured by Japan Becton Dickinson), 6 μL of DMSO (Tokyo Kasei) and an ethanol solution of each test compound (1 to 8 μL) were added and then the microplates were allowed to stand still at room temperature for 5 hours to evaporate ethanol. A suspension solution of a Pseudomonas microbe prepared in the same procedure as in Test Example 1, 1) was added in an amount of 145 μL per well and culture was initiated.
(§3) After the 96-well microplate was subjected to stationary culture at 30° C. for 24 hours, turbidity (OD600) was measured to check growth. Subsequently, individual wells were stained with 0.1% crystal violet and thoroughly washed twice with physiological saline. To each well, 200 μL of ethanol was added and the absorbance (OD570) was measured to obtain the amount of the biofilm formed. The growth inhibition rate and biofilm (BF) formation inhibition rate were calculated based on OD600 and OD570 values measured and in accordance with the expressions used in Test Example 2.

[2] = tested on: Pseudomonas PAO1 strain (ATCC 15692); assay: Growth of test microbe (turbidity OD600), 96-well microplate culture; assay type: cell-based
Experimental: Pseudomonas PAO1 strain (ATCC 15692) was subjected to stationary culture performed in LB culture medium (Lysogeny Broth; manufactured by Becton Dickinson) at 37° C. for 24 hours. The turbidity (OD600) of the culture solution was measured. The culture solution was diluted with Mueller Hinton Broth (BBL made) to prepare a suspension (15 mL) having a turbidity (OD600) of 1/10^6.
To each of the wells of a 96-well microplate (351172; manufactured by Japan Becton Dickinson), 6 μL of DMSO (Tokyo Chemical Industry Co. Ltd) and an ethanol solution (1 μL, 3 μL or 5 μL) of a test compound were added. After that, the microplate was allowed to stand still at room temperature for 5 hours to evaporate ethanol. The suspension of Pseudomonas microbe prepared in the above step 1) was added in an amount of 145 μL per well and culture was initiated. As the test compound, 2-methylhydroquinone (Sigma Aldrich) and p-toluquinone (Tokyo Kasei) were used. As a reference compound, sodium hypochlorite (manufactured by Wako Pure Chemical Industries Ltd.) was used. As a control, an ethanol solvent (EtOH control) alone was used. The concentration of the test compound in the ethanol solution is 1,000 ppm or 10,000 ppm and the final concentration of the test compound in the culture solution was about from 7 to 333 ppm.
After the 96-well microplate was subjected to stationary culture performed at 30° C. for 24 hours, turbidity (OD600) was measured to check growth. Subsequently, individual wells were stained with 0.1% crystal violet and thoroughly washed twice with physiological saline. To each well, 200 μL of ethanol was added and the absorbance (OD570) was measured to obtain the amount of the biofilm formed.
Compounds listed in Table 3 were each added to a test microbe and culture was conducted by the same procedure as in Test Example 1 and the amount of growth (OD600) and the amount of biofilm formed (OD570) were measured. For compounds a, b, c, f, h, i, J and k, 20 mM ethanol solutions were prepared; whereas for compounds d, e, g, 5 mM ethanol solutions were prepared. The solutions were each added to a 96-well microplate in an amount of 1 to 8 μL and evaluation was made. The final concentrations of the individual compounds are described in Table 3.
as §1
Growth inhibition (%)=(1−(compound addition group OD600/control group OD600))×100
as §2, §3

[3] = final concentration 7 ppm, EtOH control 0.9163
[4] = final concentration 20 ppm, EtOH control 0.9564
[5] = final concentration 33 ppm, EtOH control 0.8974
[6] = final concentration 67 ppm, EtOH control 0.8853
[7] = final concentration 200 ppm, EtOH control 0.9248
[8] = final concentration 333 ppm, EtOH control 0.9562
[9] = final concentration 7 ppm, EtOH control 0.5913
[10] = final concentration 20 ppm, EtOH control 0.6346
[11] = final concentration 33 ppm, EtOH control 0.668
[12] = final concentration 67 ppm, EtOH control 0.628
[13] = final concentration 200 ppm, EtOH control 0.6045
[14] = final concentration 333 ppm, EtOH control 0.6088
[15] = high concentration range of 200 ppm or more

Structure (SMILES): Cc1c(O)cccc1O [Compound 6, 2-Methylresorcinol]
- inhibition at 83 ppm ([1]; Pseudomonas, Test Example 3, final concentration 83 ppm, read-out: BF inhibition (%)): < 0%
- inhibition at 165 ppm ([1]; Pseudomonas, Test Example 3, final concentration 165 ppm, read-out: BF inhibition (%)): < 0%
- inhibition at 331 ppm ([1]; Pseudomonas, Test Example 3, final concentration 331 ppm, read-out: BF inhibition (%)): < 0%
- inhibition at 496 ppm ([1]; Pseudomonas, Test Example 3, final concentration 496 ppm, read-out: BF inhibition (%)): 53%
- inhibition at 579 ppm ([1]; Pseudomonas, Test Example 3, final concentration 579 ppm, read-out: BF inhibition (%)): 52.2%
- inhibition at 661 ppm ([1]; Pseudomonas, Test Example 3, final concentration 661 ppm, read-out: BF inhibition (%)): 56.3%
- inhibition at 83 ppm ([2]; Pseudomonas, Test Example 3, final concentration 83 ppm): < 0%
- inhibition at 165 ppm ([2]; Pseudomonas, Test Example 3, final concentration 165 ppm): 5.2%
- inhibition at 331 ppm ([2]; Pseudomonas, Test Example 3, final concentration 331 ppm): < 0%
- inhibition at 496 ppm ([2]; Pseudomonas, Test Example 3, final concentration 496 ppm): 12.3%
- inhibition at 579 ppm ([2]; Pseudomonas, Test Example 3, final concentration 579 ppm): 20%
- inhibition at 661 ppm ([2]; Pseudomonas, Test Example 3, final concentration 661 ppm): 13.3%

Structure (SMILES): CC(C)c1ccc(O)cc1O [Compound 7, 4-Isopropylresorcinol]
- inhibition at 101 ppm ([1]; Pseudomonas, Test Example 3, final concentration 101 ppm, read-out: BF inhibition (%)): < 0%
- inhibition at 203 ppm ([1]; Pseudomonas, Test Example 3, final concentration 203 ppm, read-out: BF inhibition (%)): < 0%
- inhibition at 405 ppm ([1]; Pseudomonas, Test Example 3, final concentration 405 ppm, read-out: BF inhibition (%)): < 0%
- inhibition at 608 ppm ([1]; Pseudomonas, Test Example 3, final concentration 608 ppm, read-out: BF inhibition (%)): 29.1%
- inhibition at 709 ppm ([1]; Pseudomonas, Test Example 3, final concentration 709 ppm, read-out: BF inhibition (%)): 29.3%
- inhibition at 810 ppm ([1]; Pseudomonas, Test Example 3, final concentration 810 ppm, read-out: BF inhibition (%)): 21%
- inhibition at 101 ppm ([2]; Pseudomonas, Test Example 3, final concentration 101 ppm): < 0%
- inhibition at 203 ppm ([2]; Pseudomonas, Test Example 3, final concentration 203 ppm): 5.7%
- inhibition at 405 ppm ([2]; Pseudomonas, Test Example 3, final concentration 405 ppm): < 0%
- inhibition at 608 ppm ([2]; Pseudomonas, Test Example 3, final concentration 608 ppm): 4.8%
- inhibition at 709 ppm ([2]; Pseudomonas, Test Example 3, final concentration 709 ppm): 19.5%
- inhibition at 810 ppm ([2]; Pseudomonas, Test Example 3, final concentration 810 ppm): 40.2%

Structure (SMILES): OCl [Sodium hypochlorite, sodium hypochlorite, reference compound]
- biofilm formation (in words) ([1]; Test Example 1, 7 to 333 ppm): inhibited
- The amount of the biofilm formed OD570 [1, 3]: 0.9918
- The amount of the biofilm formed OD570 [1, 4]: 0.9042
- The amount of the biofilm formed OD570 [1, 5]: 0.7879
- The amount of the biofilm formed OD570 [1, 6]: 0.7277
- The amount of the biofilm formed OD570 [1, 7]: 0.7579
- The amount of the biofilm formed OD570 [1, 8]: 0.4967
- microbial growth (in words) ([2]; Test Example 1, 7 to 333 ppm): inhibited
- Growth OD600 [2, 9]: 0.5938
- Growth OD600 [2, 10]: 0.4966
- Growth OD600 [2, 11]: 0.4445
- Growth OD600 [2, 12]: 0.4585
- Growth OD600 [2, 13]: 0.3016
- Growth OD600 [2, 14]: 0.2758

Structure (SMILES): Cc1cc(O)ccc1O [b, 2-Methylhydroquinone]
- inhibition at 16 ppm ([1]; Pseudomonas, final concentration 16 ppm, read-out: BF inhibition (%)): 51.4%
- inhibition at 33 ppm ([1]; Pseudomonas, final concentration 33 ppm, read-out: BF inhibition (%)): 42.5%
- inhibition at 65 ppm ([1]; Pseudomonas, final concentration 65 ppm, read-out: BF inhibition (%)): 76.5%
- inhibition at 98 ppm ([1]; Pseudomonas, final concentration 98 ppm, read-out: BF inhibition (%)): 87.3%
- inhibition at 114 ppm ([1]; Pseudomonas, final concentration 114 ppm, read-out: BF inhibition (%)): 95.2%
- inhibition at 130 ppm ([1]; Pseudomonas, final concentration 130 ppm, read-out: BF inhibition (%)): 96.2%
- The amount of the biofilm formed OD570 [1, 3]: 0.7615
- The amount of the biofilm formed OD570 [1, 4]: 0.7848
- The amount of the biofilm formed OD570 [1, 5]: 0.739
- The amount of the biofilm formed OD570 [1, 6]: 0.5875
- The amount of the biofilm formed OD570 [1, 7]: 0.0566
- The amount of the biofilm formed OD570 [1, 8]: 0.0744
- biofilm formation (in words) [1, 15]: inhibited
- biofilm formation (in words) ([1]; low concentration range of less than 200 ppm): inhibited
- inhibition at 16 ppm ([2]; Pseudomonas, final concentration 16 ppm): 31.2%
- inhibition at 33 ppm ([2]; Pseudomonas, final concentration 33 ppm): < 0%
- inhibition at 65 ppm ([2]; Pseudomonas, final concentration 65 ppm): 4%
- inhibition at 98 ppm ([2]; Pseudomonas, final concentration 98 ppm): < 0%
- inhibition at 114 ppm ([2]; Pseudomonas, final concentration 114 ppm): 1.5%
- inhibition at 130 ppm ([2]; Pseudomonas, final concentration 130 ppm): 0%
- Growth OD600 [2, 9]: 0.6114
- Growth OD600 [2, 10]: 0.6276
- Growth OD600 [2, 11]: 0.6291
- Growth OD600 [2, 12]: 0.471
- Growth OD600 [2, 13]: 0.3373
- Growth OD600 [2, 14]: 0.4302
- microbial growth (in words) [2, 15]: inhibited

Reference: patent US20190124918A1, “BIOFILM FORMATION INHIBITOR AND BIOFILM FORMATION INHIBITING COMPOSITION” (KAO CORPORATION, priority 2016, published 2019)
